How the values were obtained:
[1] = tested on: recombinant NL4-3 virus (nef section replaced with Renilla luciferase gene) in MT-2 cells; experiment: HIV cell culture assay (antiviral activity, luciferase readout); type: cell-based; details: Renilla, NL43, MT-2 cells infected for 4-5 days with recombinant NL4-3 Renilla luciferase virus, serial dilutions of compound
How it was run: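 EC50 was derived by median-effect curve fitting of luciferase activity. The signal comes from MT-2 cells infected for 4–5 days with 293T-produced NL4-3 reporter virus, nef partly replaced by Renilla luciferase, in the presence of serially diluted compound.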

[2] = Compound cytotoxicity, XTT-based colorimetric assay; type: cell-based; details: human, uninfected MT2 cells, day 4, XTT
How it was run: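 Run under the antiviral-assay protocol but without virus. Viability was read on day 4 and CC50 values were derived from the readout.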

Cn1nc(NS(C)(=O)=O)c2c(Cl)ccc(-n3c([C@H](Cc4cc(F)cc(F)c4)NC(=O)Cn4nc(C(F)F)c5c4C(F)(F)[C@@H]4C[C@H]54)nc4cc(-c5cc(F)ccc5F)ccc4c3=O)c21 (atropisomer, axis not shown; (aR)) [Example 99, N-((S)-1-(3-(4-chloro-1-methyl-3-(methylsulfonamido)-1H-indazol-7-yl)-7-(2,5-difluorophenyl)-4-oxo-3,4-dihydroquinazolin-2-yl)-2-(3,5-difluorophenyl)ethyl)-2-((3bS,4aR)-3-(difluoromethyl)-5,5-difluoro-3b,4,4a,5-tetrahydro-1H-cyclopropa[3,4]cyclopenta[1,2-c]pyrazol-1-yl)acetamide]
EC50 [1]: 0.68 nM | CC50 at 4 day [2]: > 1000 nM

Cn1nc(NS(C)(=O)=O)c2c(Cl)ccc(-n3c([C@H](Cc4cc(F)cc(F)c4)NC(=O)Cn4nc(C(F)F)c5c4C(F)(F)[C@@H]4C[C@H]54)nc4cc(-c5ccc(C(=O)O)cc5)ccc4c3=O)c21 (atropisomer, axis not shown; (aR)) [Example 100, 4-(3-(4-chloro-1-methyl-3-(methylsulfonamido)-1H-indazol-7-yl)-2-((S)-1-(2-((3bS,4aR)-3-(difluoromethyl)-5,5-difluoro-3b,4,4a,5-tetrahydro-1H-cyclopropa[3,4]cyclopenta[1,2-c]pyrazol-1-yl)acetamido)-2-(3,5-difluorophenyl)ethyl)-4-oxo-3,4-dihydroquinazolin-7-yl)benzoic acid]
EC50 [1]: 6.5 nM | CC50 at 4 day [2]: > 1000 nM

Cn1nc(NS(C)(=O)=O)c2c(Cl)ccc(-n3c([C@H](Cc4cc(F)cc(F)c4)NC(=O)Cn4nc(C(F)F)c5c4C(F)(F)[C@@H]4C[C@H]54)nc4cc(-c5ccc(-c6ccccc6)cc5)ccc4c3=O)c21 (atropisomer, axis not shown; (aR)) [Example 101, N-((S)-1-(7-([1,1′-biphenyl]-4-yl)-3-(4-chloro-1-methyl-3-(methylsulfonamido)-1H-indazol-7-yl)-4-oxo-3,4-dihydroquinazolin-2-yl)-2-(3,5-difluorophenyl)ethyl)-2-((3bS,4aR)-3-(difluoromethyl)-5,5-difluoro-3b,4,4a,5-tetrahydro-1H-cyclopropa[3,4]cyclopenta[1,2-c]pyrazol-1-yl)acetamide]
EC50 [1]: 62 nM | CC50 at 4 day [2]: > 1000 nM

Cn1nc(NS(C)(=O)=O)c2c(Cl)ccc(-n3c([C@H](Cc4cc(F)cc(F)c4)NC(=O)Cn4nc(C(F)F)c5c4C(F)(F)[C@@H]4C[C@H]54)nc4cc(-c5cc(F)cc(F)c5)ccc4c3=O)c21 (atropisomer, axis not shown; (aR)) [Example 103, N-((S)-1-(3-(4-chloro-1-methyl-3-(methylsulfonamido)-1H-indazol-7-yl)-7-(3,5-difluorophenyl)-4-oxo-3,4-dihydroquinazolin-2-yl)-2-(3,5-difluorophenyl)ethyl)-2-((3bS,4aR)-3-(difluoromethyl)-5,5-difluoro-3b,4,4a,5-tetrahydro-1H-cyclopropa[3,4]cyclopenta[1,2-c]pyrazol-1-yl)acetamide]
EC50 [1]: 0.88 nM | CC50 at 4 day [2]: > 1000 nM

Cn1nc(NS(C)(=O)=O)c2c(Cl)ccc(-n3c([C@H](Cc4cc(F)cc(F)c4)NC(=O)Cn4nc(C(F)F)c5c4C(F)(F)[C@@H]4C[C@H]54)nc4cc(-c5c(Cl)cccc5Cl)ccc4c3=O)c21 (atropisomer, axis not shown; (aR)) [Example 104, N-((S)-1-(3-(4-chloro-1-methyl-3-(methylsulfonamido)-1H-indazol-7-yl)-7-(2,6-dichlorophenyl)-4-oxo-3,4-dihydroquinazolin-2-yl)-2-(3,5-difluorophenyl)ethyl)-2-((3bS,4aR)-3-(difluoromethyl)-5,5-difluoro-3b,4,4a,5-tetrahydro-1H-cyclopropa[3,4]cyclopenta[1,2-c]pyrazol-1-yl)acetamide]
EC50 [1]: 0.68 nM | CC50 at 4 day [2]: > 1000 nM

Cn1nc(NS(C)(=O)=O)c2c(Cl)ccc(-n3c([C@H](Cc4cc(F)cc(F)c4)NC(=O)Cn4nc(C(F)F)c5c4C(F)(F)[C@@H]4C[C@H]54)nc4cc(-c5ccc(F)cc5CO)ccc4c3=O)c21 (atropisomer, axis not shown; (aR)) [Example 105, N-((S)-1-(3-(4-chloro-1-methyl-3-(methylsulfonamido)-1H-indazol-7-yl)-7-(4-fluoro-2-(hydroxymethyl)phenyl)-4-oxo-3,4-dihydroquinazolin-2-yl)-2-(3,5-difluorophenyl)ethyl)-2-((3bS,4aR)-3-(difluoromethyl)-5,5-difluoro-3b,4,4a,5-tetrahydro-1H-cyclopropa[3,4]cyclopenta[1,2-c]pyrazol-1-yl)acetamide]
EC50 [1]: 0.34 nM | CC50 at 4 day [2]: > 1000 nM

Cn1nc(NS(C)(=O)=O)c2c(Cl)ccc(-n3c([C@H](Cc4cc(F)cc(F)c4)NC(=O)Cn4nc(C(F)F)c5c4C(F)(F)[C@@H]4C[C@H]54)nc4cc(-c5ccccc5Oc5ccccc5)ccc4c3=O)c21 (atropisomer, axis not shown; (aR)) [Example 107, N-((S)-1-(3-(4-chloro-1-methyl-3-(methylsulfonamido)-1H-indazol-7-yl)-4-oxo-7-(2-phenoxyphenyl)-3,4-dihydroquinazolin-2-yl)-2-(3,5-difluorophenyl)ethyl)-2-((3bS,4aR)-3-(difluoromethyl)-5,5-difluoro-3b,4,4a,5-tetrahydro-1H-cyclopropa[3,4]cyclopenta[1,2-c]pyrazol-1-yl)acetamide]
EC50 [1]: 10 nM | CC50 at 4 day [2]: > 1000 nM

Cn1nc(NS(C)(=O)=O)c2c(Cl)ccc(-n3c([C@H](Cc4cc(F)cc(F)c4)NC(=O)Cn4nc(C(F)F)c5c4C(F)(F)[C@@H]4C[C@H]54)nc4cc(-c5cc(F)c(F)c(F)c5)ccc4c3=O)c21 (atropisomer, axis not shown; (aR)) [Example 108, N-((S)-1-(3-(4-chloro-1-methyl-3-(methylsulfonamido)-1H-indazol-7-yl)-4-oxo-7-(3,4,5-trifluorophenyl)-3,4-dihydroquinazolin-2-yl)-2-(3,5-difluorophenyl)ethyl)-2-((3bS,4aR)-3-(difluoromethyl)-5,5-difluoro-3b,4,4a,5-tetrahydro-1H-cyclopropa[3,4]cyclopenta[1,2-c]pyrazol-1-yl)acetamide]
EC50 [1]: 0.78 nM | CC50 at 4 day [2]: > 1000 nM

Cn1nc(NS(C)(=O)=O)c2c(Cl)ccc(-n3c([C@H](Cc4cc(F)cc(F)c4)NC(=O)Cn4nc(C(F)F)c5c4C(F)(F)[C@@H]4C[C@H]54)nc4cc(-c5ccccc5S(C)(=O)=O)ccc4c3=O)c21 (atropisomer, axis not shown; (aR)) [Example 109, N-((S)-1-(3-(4-chloro-1-methyl-3-(methylsulfonamido)-1H-indazol-7-yl)-7-(2-(methylsulfonyl)phenyl)-4-oxo-3,4-dihydroquinazolin-2-yl)-2-(3,5-difluorophenyl)ethyl)-2-((3bS,4aR)-3-(difluoromethyl)-5,5-difluoro-3b,4,4a,5-tetrahydro-1H-cyclopropa[3,4]cyclopenta[1,2-c]pyrazol-1-yl)acetamide]
EC50 [1]: 0.11 nM | CC50 at 4 day [2]: > 1000 nM

Cn1nc(NS(C)(=O)=O)c2c(Cl)ccc(-n3c([C@H](Cc4cc(F)cc(F)c4)NC(=O)Cn4nc(C(F)F)c5c4C(F)(F)[C@@H]4C[C@H]54)nc4cc(-c5ccccc5CO)ccc4c3=O)c21 (atropisomer, axis not shown; (aR)) [Example 116, N-((S)-1-(3-(4-chloro-1-methyl-3-(methylsulfonamido)-1H-indazol-7-yl)-7-(2-(hydroxymethyl)phenyl)-4-oxo-3,4-dihydroquinazolin-2-yl)-2-(3,5-difluorophenyl)ethyl)-2-((3bS,4aR)-3-(difluoromethyl)-5,5-difluoro-3b,4,4a,5-tetrahydro-1H-cyclopropa[3,4]cyclopenta[1,2-c]pyrazol-1-yl)acetamide]
EC50 [1]: 0.14 nM | CC50 at 4 day [2]: > 500 nM

COc1ccnc(-c2ccc3c(=O)n(-c4ccc(Cl)c5c(NS(C)(=O)=O)nn(C)c45)c([C@H](Cc4cc(F)cc(F)c4)NC(=O)Cn4nc(C(F)F)c5c4C(F)(F)[C@@H]4C[C@H]54)nc3c2)n1 (atropisomer, axis not shown; (aR)) [Example 117, N-((S)-1-(3-(4-chloro-1-methyl-3-(methylsulfonamido)-1H-indazol-7-yl)-7-(4-methoxypyrimidin-2-yl)-4-oxo-3,4-dihydroquinazolin-2-yl)-2-(3,5-difluorophenyl)ethyl)-2-((3bS,4aR)-3-(difluoromethyl)-5,5-difluoro-3b,4,4a,5-tetrahydro-1H-cyclopropa[3,4]cyclopenta[1,2-c]pyrazol-1-yl)acetamide]
EC50 [1]: 0.058 nM | CC50 at 4 day [2]: > 500 nM

Cn1nc(NS(C)(=O)=O)c2c(Cl)ccc(-n3c([C@H](Cc4cc(F)cc(F)c4)NC(=O)Cn4nc(C(F)F)c5c4C(F)(F)[C@@H]4C[C@H]54)nc4cc(-c5ccncc5)ccc4c3=O)c21 (atropisomer, axis not shown; (aR)) [Example 118, N-((S)-1-(3-(4-chloro-1-methyl-3-(methylsulfonamido)-1H-indazol-7-yl)-4-oxo-7-(pyridin-4-yl)-3,4-dihydroquinazolin-2-yl)-2-(3,5-difluorophenyl)ethyl)-2-((3bS,4aR)-3-(difluoromethyl)-5,5-difluoro-3b,4,4a,5-tetrahydro-1H-cyclopropa[3,4]cyclopenta[1,2-c]pyrazol-1-yl)acetamide]
EC50 [1]: 0.16 nM | CC50 at 4 day [2]: > 500 nM
